Values joined by “and” are separate entries in the source; they are usually repeats but may differ in a detail not shown here. Equal entries are not always repeated.
What follows are compounds tested against T1, CB1 cannabinoid receptor (Rattus norvegicus, UniProt P20272) (assay: CB1 receptor binding, rat forebrain membranes, [3H] CP-55,940 displacement). Settings: affinities Ki CB1, rat forebrain membranes, 0.8 nM [3H] CP-55,940.
T1 construct: membranes were prepared from rat forebrain membranes; from tissue; host or cells: rat forebrain
T1 sequence (P20272 whole entry): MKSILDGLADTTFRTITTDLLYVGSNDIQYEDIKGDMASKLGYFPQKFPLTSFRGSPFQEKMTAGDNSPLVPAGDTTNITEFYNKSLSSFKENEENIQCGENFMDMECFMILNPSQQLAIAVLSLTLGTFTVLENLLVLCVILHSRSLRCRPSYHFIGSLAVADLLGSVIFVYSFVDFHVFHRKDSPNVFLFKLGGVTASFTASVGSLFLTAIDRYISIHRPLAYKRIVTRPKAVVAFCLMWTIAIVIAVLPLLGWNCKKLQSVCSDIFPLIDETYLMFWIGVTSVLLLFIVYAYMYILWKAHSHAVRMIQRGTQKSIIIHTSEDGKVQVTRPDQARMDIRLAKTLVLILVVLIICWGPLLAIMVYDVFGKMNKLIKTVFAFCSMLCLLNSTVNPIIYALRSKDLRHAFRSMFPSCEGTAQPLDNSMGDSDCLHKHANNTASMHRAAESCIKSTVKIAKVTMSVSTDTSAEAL
Protocol: Some of the inventive analogs were tested for CB2 receptor binding affinity and for CB1 receptor affinity (to determine selectivity). […] The lower the Ki value the higher the binding affinity. […]
Membranes, previously frozen at −80° C., were thawed on ice. To the stirred suspension was added three volumes of TME (25 mM Tris-HCl buffer, 5 mM MgCl2 and 1 mM EDTA) at a pH 7.4. The suspension was incubated at 4° C. for 30 min. At the end of the incubation, the membranes were pelleted and washed three times with TME.
(§1) The treated membranes were subsequently used in the binding assay described below. Approximately 30 μg of membranes were incubated in silanized 96-well microtiter plate with TME containing 0.1% essentially fatty acid-free bovine serum albumin (BSA), 0.8 nM [^3H] […] Radioactivity was detected using MicroScint 20 scintillation cocktail added directly to the dried filterplates, and the filterplates were counted using a Packard Instruments Top-Count. […] Data collected from three independent experiments performed with duplicate determinations was normalized between 100% and 0% specific binding for [^3H] […] The normalized data was analyzed using a 4-parameter nonlinear logistic equation to yield IC50 values.
For `Cc1c(C(=O)NC2CC3CCC2(C)C3(C)C)nn(CCCCCCl)c1-c1ccccc1` (stereo not shown) [Compound 4-1], the Ki was 5.9 nM and 6 nM.
In the case of `Cc1c(C(=O)NC23CC4CC(CC(C4)C2)C3)nn(CCCCCCl)c1-c1ccccc1` [Compound 4-2], the Ki is reported as 1.42 nM and 1.4 nM.
With `Cc1c(C(=O)Nc2ccc3ccccc3c2)nn(CCCCCCl)c1-c1ccccc1` [Compound 4-3] the Ki was 14.6 nM.
`Cc1c(C(=O)NC2C3CC4CC(C3)CC2C4)nn(CCCCCCl)c1-c1ccccc1` (stereo not shown) [Compound 4-4] was tested, and the Ki was 7.64 nM and 7.6 nM.
With `Cc1c(C(=O)NCC23CC4CC(CC(C4)C2)C3)nn(CCCCCCl)c1-c1ccccc1` [Compound 4-5] the Ki was 19.8 nM and 20 nM.
In the case of `O=C(NC12CC3CC(CC(C3)C1)C2)c1cc(-c2ccccc2)n(CCCCCCl)n1` [Compound 4-6], the Ki is reported as 12.2 nM and 12 nM.
`Cc1c(C(=O)NC2CC(C)C3CC2C3(C)C)nn(CCCCCCl)c1-c1ccccc1` (stereo not shown) [Compound 4-7] was tested, and the Ki was 4.73 nM and 4.7 nM.
`Cc1c(C(=O)NCC2CCC3CC2C3(C)C)nn(CCCCCCl)c1-c1ccccc1` (stereo not shown) [Compound 4-8] was tested, and the Ki was 1.22 nM and 1.2 nM.
With `Cc1c(C(=O)NC23CC4CC(CC(C4)C2)C3)nn(CCCCCI)c1-c1ccccc1` [Compound 4-10] the Ki was 1.34 nM and 1.3 nM.
With `Cc1c(C(=O)NC23CC4CC(CC(C4)C2)C3)nn(CCCCCN=[N+]=[N-])c1-c1ccccc1` [Compound 4-11] the Ki was 3.96 nM and 4 nM.

Same assay, conditions: rat forebrain membranes, 0.8 nM [3H] CP-55,940; read-out: affinities Ki CB1
In the case of `O=C(NN1CCCCC1)c1nn(-c2ccc(Cl)cc2Cl)c(-c2ccc(-c3cccnc3)cc2)c1CO` [Compound 1-5], the Ki is reported as 5.8 nM.
`O=C(NN1CCCCC1)c1nn(-c2ccc(Cl)cc2Cl)c(-c2ccc(-c3cccnc3)cc2)c1CO` [Compound 3-21] showed a Ki of 76 nM.
`N#Cc1ccc(-c2c(CO)c(C(=O)NN3CCCCC3)nn2-c2ccc(Cl)cc2Cl)cc1` [Compound 3-22] was tested, and the Ki was 64 nM.
`Cc1c(C(=O)NN2CCCCC2)nn(-c2ccc(Cl)cc2Cl)c1-c1ccc(C#N)cc1` [Compound 3-23] gave a Ki of 22 nM.
With `Cc1c(C(=O)NN2CCCCC2)nn(-c2ccc(Cl)cc2Cl)c1-c1ccc(C(=O)O)cc1` [Compound 3-24] the Ki was 738 nM.
`Cc1c(C(=O)NN2CCCCC2)nn(-c2ccc(Cl)cc2Cl)c1-c1ccc(C(N)=S)cc1` [Compound 3-25] showed a Ki of 86 nM.

Same assay, conditions: ratio of CB2 Ki to CB1 Ki
In the case of `O=C(NN1CCCCC1)c1nn(-c2ccc(Cl)cc2Cl)c(-c2ccc(-c3cccnc3)cc2)c1CO` [Compound 1-5], the “selectivity CB1” value is reported as 398.
In the case of `N#Cc1ccc(-c2c(CO)c(C(=O)NN3CCCCC3)nn2-c2ccc(Cl)cc2Cl)cc1` [Compound 3-22], the “selectivity CB1” value is reported as 42.8.
`Cc1c(C(=O)NN2CCCCC2)nn(-c2ccc(Cl)cc2Cl)c1-c1ccc(C#N)cc1` [Compound 3-23] was tested, and the “selectivity CB1” value was 213.3.
For `Cc1c(C(=O)NN2CCCCC2)nn(-c2ccc(Cl)cc2Cl)c1-c1ccc(C(=O)O)cc1` [Compound 3-24], the “selectivity CB1” value was 1.3.
For `Cc1c(C(=O)NN2CCCCC2)nn(-c2ccc(Cl)cc2Cl)c1-c1ccc(C(N)=S)cc1` [Compound 3-25], the “selectivity CB1” value was 1.5.

What follows are compounds tested against T2, CB2 receptor (Mus musculus, UniProt P47936) (assay: CB2 receptor binding, mouse spleen membranes, same manner as the CB1 binding assay). Settings: affinities Ki CB2, mouse spleen membranes, [3H] CP-55,940.
T2 construct: membranes were prepared from frozen mouse spleen; from tissue; host or cells: mouse spleen
T2 sequence (P47936 whole entry): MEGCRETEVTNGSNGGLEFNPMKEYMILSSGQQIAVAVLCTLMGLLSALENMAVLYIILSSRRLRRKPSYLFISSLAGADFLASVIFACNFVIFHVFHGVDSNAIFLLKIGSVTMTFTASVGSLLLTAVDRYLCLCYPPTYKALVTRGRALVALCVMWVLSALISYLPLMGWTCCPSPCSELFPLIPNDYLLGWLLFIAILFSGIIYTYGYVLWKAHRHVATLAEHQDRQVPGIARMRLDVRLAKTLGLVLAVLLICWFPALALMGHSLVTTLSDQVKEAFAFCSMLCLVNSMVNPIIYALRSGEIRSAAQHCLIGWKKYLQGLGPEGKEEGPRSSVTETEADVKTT
Protocol: Some of the inventive analogs were tested for CB2 receptor binding affinity and for CB1 receptor affinity (to determine selectivity). […] The lower the Ki value the higher the binding affinity.
as §1
Silanized centrifuge tubes were used throughout to minimize receptor loss due to adsorption. The CB2 binding assay was conducted in the same manner as for the CB1 binding assay. The binding affinities (Ki) were also expressed in nanomoles (nM).
`Cc1c(C(=O)NC2CC3CCC2(C)C3(C)C)nn(CCCCCCl)c1-c1ccccc1` (stereo not shown) [Compound 4-1] was tested, and the Ki was 2.51 nM and 2.5 nM.
`Cc1c(C(=O)NC23CC4CC(CC(C4)C2)C3)nn(CCCCCCl)c1-c1ccccc1` [Compound 4-2] was tested, and the Ki was 0.704 nM and 0.8 nM.
`Cc1c(C(=O)Nc2ccc3ccccc3c2)nn(CCCCCCl)c1-c1ccccc1` [Compound 4-3] gave a Ki of 15.4 nM.
With `Cc1c(C(=O)NC2C3CC4CC(C3)CC2C4)nn(CCCCCCl)c1-c1ccccc1` (stereo not shown) [Compound 4-4] the Ki was 8.46 nM and 8.5 nM.
`Cc1c(C(=O)NCC23CC4CC(CC(C4)C2)C3)nn(CCCCCCl)c1-c1ccccc1` [Compound 4-5] was tested, and the Ki was 6.65 nM and 6.6 nM.
With `O=C(NC12CC3CC(CC(C3)C1)C2)c1cc(-c2ccccc2)n(CCCCCCl)n1` [Compound 4-6] the Ki was 4.79 nM and 4.8 nM.
`Cc1c(C(=O)NC2CC(C)C3CC2C3(C)C)nn(CCCCCCl)c1-c1ccccc1` (stereo not shown) [Compound 4-7] was tested, and the Ki was 2.76 nM and 2.8 nM.
With `Cc1c(C(=O)NCC2CCC3CC2C3(C)C)nn(CCCCCCl)c1-c1ccccc1` (stereo not shown) [Compound 4-8] the Ki was 0.615 nM and 0.6 nM.
With `Cc1c(C(=O)NC23CC4CC(CC(C4)C2)C3)nn(CCCCCI)c1-c1ccccc1` [Compound 4-10] the Ki was 1.01 nM and 1 nM.
For `Cc1c(C(=O)NC23CC4CC(CC(C4)C2)C3)nn(CCCCCN=[N+]=[N-])c1-c1ccccc1` [Compound 4-11], the Ki was 0.965 nM and 1 nM.

Same assay, conditions: mouse spleen membranes, [3H] CP-55,940; read-out: affinities Ki CB2
With `O=C(NN1CCCCC1)c1nn(-c2ccc(Cl)cc2Cl)c(-c2ccc(-c3cccnc3)cc2)c1CO` [Compound 1-5] the Ki was 2310 nM.
With `O=C(NN1CCCCC1)c1nn(-c2ccc(Cl)cc2Cl)c(-c2ccc(-c3cccnc3)cc2)c1CO` [Compound 3-21] the Ki was 207 nM.
`N#Cc1ccc(-c2c(CO)c(C(=O)NN3CCCCC3)nn2-c2ccc(Cl)cc2Cl)cc1` [Compound 3-22] gave a Ki of 2740 nM.
`Cc1c(C(=O)NN2CCCCC2)nn(-c2ccc(Cl)cc2Cl)c1-c1ccc(C#N)cc1` [Compound 3-23] gave a Ki of 4690 nM.
`Cc1c(C(=O)NN2CCCCC2)nn(-c2ccc(Cl)cc2Cl)c1-c1ccc(C(=O)O)cc1` [Compound 3-24] showed a Ki of 934 nM.
With `Cc1c(C(=O)NN2CCCCC2)nn(-c2ccc(Cl)cc2Cl)c1-c1ccc(C(N)=S)cc1` [Compound 3-25] the Ki was 127 nM.

Same assay, conditions: ratio of CB1 Ki to CB2 Ki
In the case of `Cc1c(C(=O)NC2CC3CCC2(C)C3(C)C)nn(CCCCCCl)c1-c1ccccc1` (stereo not shown) [Compound 4-1], the “selectivity CB2” value is reported as 2.4.
In the case of `Cc1c(C(=O)NC23CC4CC(CC(C4)C2)C3)nn(CCCCCCl)c1-c1ccccc1` [Compound 4-2], the “selectivity CB2” value is reported as 1.8.
With `Cc1c(C(=O)NCC23CC4CC(CC(C4)C2)C3)nn(CCCCCCl)c1-c1ccccc1` [Compound 4-5] the “selectivity CB2” value was 3.
`O=C(NC12CC3CC(CC(C3)C1)C2)c1cc(-c2ccccc2)n(CCCCCCl)n1` [Compound 4-6] was tested, and the “selectivity CB2” value was 2.5.
`Cc1c(C(=O)NC2CC(C)C3CC2C3(C)C)nn(CCCCCCl)c1-c1ccccc1` (stereo not shown) [Compound 4-7] was tested, and the “selectivity CB2” value was 1.7.
With `Cc1c(C(=O)NCC2CCC3CC2C3(C)C)nn(CCCCCCl)c1-c1ccccc1` (stereo not shown) [Compound 4-8] the “selectivity CB2” value was 2.
In the case of `Cc1c(C(=O)NC23CC4CC(CC(C4)C2)C3)nn(CCCCCI)c1-c1ccccc1` [Compound 4-10], the “selectivity CB2” value is reported as 1.3.
`Cc1c(C(=O)NC23CC4CC(CC(C4)C2)C3)nn(CCCCCN=[N+]=[N-])c1-c1ccccc1` [Compound 4-11] was tested, and the “selectivity CB2” value was 4.

Each compound was assayed on rats (assay: Food-reinforced lever pressing in trained rats). Settings: IP, various dosages, tested ten minutes after injection, FIG. 1, p<0.05.
Type: in vivo, rat
Protocol: 11 rats were trained to press a lever five times to receive a 45 mg food pellet. The training continued over a time period of several weeks. After the training period all rats received drug treatments once per week. The specific rat receiving a drug treatment and the dosage given were each randomly varied. The treatments comprised administration of a vehicle control solution or various dosages of inventive compound 1-5 in combination with the vehicle control solution. All injections were given IP. Ten minutes after injection the rat was placed in proximity to the lever.
FIG. 1 illustrates a mean (±SEM) number of lever presses in 30 min for treated animals. […] FIG. 1 illustrates a classic dose response curve wherein as the dose of drug (inventive compound 1-5) increases, lever pressing consistently decreases. Without wishing to be bound to any theory, applicants believe that inventive compound 1-5 antagonizes (blocks) the CB1 receptors, thereby suppressing appetite and leading to decreased lever pressing.
`O=C(NN1CCCCC1)c1nn(-c2ccc(Cl)cc2Cl)c(-c2ccc(-c3cccnc3)cc2)c1CO` [Compound 1-5] was tested, and the “suppression of food-reinforced lever pressing (number of lever presses in 30 min)” value was “suppression of food-reinforced lever pressing was statistically significant”.
